According to ChEMBL document CHEMBL1157528, “Mixed tetraoxanes containing the acetone subunit as antimalarials” (Bioorg Med Chem, 2008):
The source made the active and inactive calls. The calls are words filed in the database; no cut-off is given here.

How the values were obtained:
Plasmodium berghei [1] = assay: Antimalarial activity as parasite-free survivors at day 31 of Plasmodium berghei KBG173 infected CD1 mice (Mus musculus) at 320 mg/kg/day peroral dose; type: functional, organism-based
Plasmodium berghei [2] = assay: Antimalarial activity as parasite-free survivors at day 31 of Plasmodium berghei KBG173 infected CD1 mice (Mus musculus) at 20 mg/kg/day peroral dose; type: functional, organism-based
Plasmodium berghei [3] = assay: Antimalarial activity as survival time in Plasmodium berghei KBG173 infected CD1 mice (Mus musculus) at 320 mg/kg/day peroral dose; type: functional; conditions: route oral
Plasmodium berghei [4] = assay: Antimalarial activity as survival time against Plasmodium berghei KBG173 infected CD1 mice (Mus musculus) at 80 mg/kg/day peroral dose 3 - 5 days post infection; type: functional; conditions: route oral
Plasmodium berghei [5] = assay: Antimalarial activity as survival time in Plasmodium berghei KBG173 infected CD1 mice (Mus musculus) at 20 mg/kg/day peroral dose; type: functional; conditions: route oral
Plasmodium falciparum [6] = assay: microbe, parasite or virus in culture; conditions: TM91C235
Description: Antimalarial activity against mefloquine, chloroquine and quinine-resistant Plasmodium falciparum TM91C235

Plasmodium falciparum [7] = assay: microbe, parasite or virus in culture; conditions: D6
Description: Antimalarial activity against chloroquine and pyrimethamine-sensitive Plasmodium falciparum D6

Plasmodium falciparum [8] = assay: microbe, parasite or virus in culture; conditions: W2
Description: Antimalarial activity against chloroquine and pyrimethamine-resistant Plasmodium falciparum W2

Plasmodium falciparum [9] = assay: microbe, parasite or virus in culture; conditions: RCS
Description: Antimalarial activity against chloroquine-resistant, mefloquine-sensitive Plasmodium falciparum RCS

Plasmodium falciparum [10] = assay: Relative activity against Plasmodium falciparum W2 as ratio of IC90 to IC50; type: functional
Plasmodium falciparum [11] = assay: Relative activity against Plasmodium falciparum TM91C235 as fold-lower IC90/IC50 ratio relative to mefloquine

Row | SMILES | Activity (Plasmodium berghei [1]) | Activity (Plasmodium berghei [2]) | Survival (Plasmodium berghei [3]) [days] | Survival (Plasmodium berghei [4]) [days] | Survival (Plasmodium berghei [5]) [days] | IC50 (Plasmodium falciparum [6]) [nM] | IC90 (Plasmodium falciparum [6]) [nM] | IC50 (Plasmodium falciparum [7]) [nM] | IC90 (Plasmodium falciparum [7]) [nM] | IC50 (Plasmodium falciparum [8]) [nM] | IC90 (Plasmodium falciparum [8]) [nM] | IC90 (Plasmodium falciparum [9]) [nM] | IC50 (Plasmodium falciparum [9]) [nM] | Ratio (Plasmodium falciparum [10]) | fold-lower IC90/IC50 ratio vs mefloquine (Plasmodium falciparum [11])
1 | COC(=O)CC[C@@H](C)[C@H]1CC[C@H]2[C@@H]3[C@H](OC(C)=O)C[C@@H]4CC5(CC[C@]4(C)[C@H]3C[C@H](OC(C)=O)[C@]12C)OOC(C)(C)OO5 | inactive | inactive | 18 | 16 | 13 | 26 | 57.3 | 15 | 26.7 | 11.7 | 20.7 | – | – | – | –
2 | C[C@@H]1CC[C@H]2[C@@H](C)C(=O)O[C@@H]3O[C@@]4(C)CC[C@@H]1[C@]32OO4 [ARTEMISININ] | – | – | – | – | – | – | 13 | 9 | 12.8 | 6.7 | 11.5 | 13 | – | – | –
3 | CC(=O)O[C@H]1C[C@H]2[C@@H]([C@H](OC(C)=O)C[C@@H]3CC4(CC[C@@]32C)OOC(C)(C)OO4)[C@@H]2CC[C@H]([C@H](C)CCC(=O)NN)[C@@]12C | – | – | – | – | – | 28.5 | 38.1 | 28.1 | 46.3 | 16.4 | 22.9 | 19.5 | 7.03 | – | –
4 | O[C@@H](c1cc(C(F)(F)F)nc2c(C(F)(F)F)cccc12)[C@H]1CCCCN1 [MEFLOQUINE] | – | – | – | – | – | – | – | – | – | – | – | 5 | 2.33 | 1.71 | 1.5
